Data from patent US20080004266A1, “Method for treating proliferative disorders associated with protooncogene products” (priority 2006, published 2008).
pIC50: −log10 of the molar value.

Assays:
V600E mutant B-raf = assay: Degradation of B-raf in A375 melanoma cells (Western blot); format: cell-based, human; settings: 18 hours, at 0.5 mM and 0.1 mM (so in the source)
Description: […] After 18 hours, the cells were lysed with 1× lysis buffer and a western blot was perform, and B-raf was detected with anti-B-raf antibody.

phosphorylated Bcr-Abl = assay: Degradation of Bcr-Abl in KU812 cells (Western blot); format: cell-based; settings: 18 hours
Description: KU812 chronic myeloid leukemia cells (ATCC) (2×10^6 cells), which harbor the Philadelphia chromosome that produces Bcr-Abl tyrosine kinase, were treated (0.1 μM and 1.0 μM) with either Compound 226, 17-AAG or 17-DMAG. After 18 hours, the cells were lysed with 1× lysis buffer, and a western blot was perform using anti-BCR-ABL antibody to detect phosphorylated Bcr-Abl.

NPM-ALK [1] = assay: Degradation of NPM-ALK in Karpas-299 cells (Western blot); format: cell-based, human; settings: 18 hours
Description: Anaplastic large-cell lymphoma cells, Karpas-299 cells (the German resource center for biological material) (2×10^6 cells), which harbor the fusion protein NPM-ALK, were treated (0.05 μM, 0.1 μM and 0.5 μM) with either Compound 226 or 17-AAG. After 18 hours and the cells were lysed with 1× lysis buffer and a western blot was perform using an anti-ALK antibody to detect and phosphorylated NPM-ALK and total NPM-ALK.

MV 4-11 cells (FLT3-ITD) = assay: Cell survival in MV-4-11 cells (Cell Counting Kit-8); format: cell-based, human; settings: 72 hours
Description: Human acute myelogenous leukemia (AML) cell line, MV 4-11 (ATCC #CRL-9591), was obtained from the American Type Culture Collection (ATCC; Manassas, Va., USA). Growth of this tumor cell line is dependent upon the expression of an activated form of the FLT3 tyrosine kinase receptor carrying an internal tandem duplication (ITD) mutation, which is the most common molecular defect associated with AML (K. W. Yee et al., Blood 100:2941-2949, 2002). MV 4-11 cells (20,000 cells/well) were cultured in 96-well plates and maintained at 37° C. for several hours. The cells were incubated at 37° C. for 72 hours with various concentrations of compounds of the invention, 17AAG, or DMAG. 17AAG and DMAG are Hsp90 inhibitors that are currently in clinical trials and are used here as positive controls for Hsp90 inhibition. Cell survival was measured with Cell Counting Kit-8 (Dojindo Laboratories, Cat # CK04).

[2] = tested on: Kasumi-1 cells (c-Kit N822K); assay: Cell survival in Kasumi-1 cells (Cell Counting Kit-8); format: cell-based, human; settings: 72 hours
Description: Kasumi-1 cells (20,000 cells/well) were cultured in 96-well plates and maintained at 37° C. for several hours. […] 17AAG and DMAG are Hsp90 inhibitors that are currently in clinical trials and are used here as positive controls for Hsp90 inhibition. […] Cell survival was measured with Cell Counting Kit-8 (Dojindo Laboratories, Cat # CK04).

[3] = tested on: NCI-H1975 cells (EGFR T790M and L858R); assay: Cell survival in NCI-H1975 cells (Cell Counting Kit-8); format: cell-based, human; settings: 72 hours
Description: Human lung cancer cell line NCI-H1975 which harbors both the T790M and the L858R mutations in EGFR was obtained from American Type Culture Collection. NCI-H1975 (10,000 cells/well) were cultured in 96-well plates and maintained at 37° C. for several hours. The cells were incubated at 37° C. for 72 hours with various concentrations of compound 226 of the invention, 17AAG or DMAG. 17AAG and DMAG are Hsp90 inhibitors that are currently in clinical trials and are used here as positive controls for Hsp90 inhibition. Cell survival was measured with Cell Counting Kit-8 (Dojindo Laboratories, Cat # CK04).

A375 cells (B-raf V600E) = assay: Cell survival in A375 melanoma cells (Cell Counting Kit-8); format: cell-based, human; settings: 72 hours
Description: Human melanoma cell line, A375 (2×10^6 cells), which contains the V600E mutation in the B-raf protein that confers constitutive […] kinase activity, was obtained from American Type Culture Collection. A375 cells (20,000 cells/well) were cultured in 96-well plates and maintained at 37° C. for several hours. The cells were incubated at 37° C. for 72 hours with various concentrations of compound 226, 17AAG or 17DMAG. 17AAG and 17DMAG are Hsp90 inhibitors that are currently in clinical trials and are used here as positive controls for Hsp90 inhibition. Cell survival was measured with Cell Counting Kit-8 (Dojindo Laboratories, Cat # CK04).

K562 cells (Bcr-Abl) = assay: Cell survival in K562 cells (Cell Counting Kit-8); format: cell-based, human; settings: 72 hours
Description: Growth of this tumor cell line is dependent upon the expression of the Bcr-Abl fusion protein (C. Gambacarti-Passerini et al., Blood Cells Mol. Dis. 23:380-394, 1997). K562 cells (20,000 cells/well) were cultured in 96-well plates and maintained at 37° C. for several hours. […] 17AAG, DMAG, and Radicical are Hsp90 inhibitors that are currently in clinical trials and are used here as positive controls for Hsp90 inhibition. […] Cell survival was measured with Cell Counting Kit-8 (Dojindo Laboratories, Cat # CK04).

[4] = tested on: Karpas-299 cells (NPM-ALK); assay: Cell survival in Karpas-299 cells (Cell Counting Kit-8); format: cell-based, human; settings: 72 hours
Description: Growth of this tumor cell line is dependent upon the expression of the NPM-ALK fusion protein. Karpas-299 cells (20,000 cells/well) were cultured in 96-well plates and maintained at 37° C. for several hours. The cells were incubated at 37° C. for 72 hours with various concentrations of compound 226 of the invention, 17AAG, and 17DMAG. 17AAG and 17DMAG are Hsp90 inhibitors that are currently in clinical trials and are used here as positive controls for Hsp90 inhibition. Cell survival was measured with Cell Counting Kit-8 (Dojindo Laboratories, Cat # CK04).

Flt3 with Hsp90 = settings: cited from earlier work
[5] = tested on: leukemia cell that express either wild type FLT3 or FLT3-ITD mutations; settings: cited from earlier work
Kasumi-1 cells = settings: mutation in c-kit; cited from earlier work
B-raf = settings: A375 (V600E) versus CHL cells (wild type B-raf); cited from earlier work
NPM-ALK [6] = settings: NPM-ALK expressing ALCL cells; cited from earlier work

SMILES: C=CCNC1=C2C[C@@H](C)C[C@H](OC)[C@H](O)[C@@H](C)/C=C(\C)[C@H](OC(N)=O)[C@@H](OC)/C=C\C=C(/C)C(=O)NC(=CC1=O)C2=O [Compound 17AAG, 17-allylamino-17-desmethoxygeldanamycin]
- degradation of V600E mutant B-raf (V600E mutant B-raf): did not induce significant degradation
- degradation of phosphorylated Bcr-Abl (phosphorylated Bcr-Abl; 0.1 μM): did not degrade
- degradation of phosphorylated Bcr-Abl (phosphorylated Bcr-Abl; 1.0 μM): partially degraded
- degradation of phosphorylated and total NPM-ALK (NPM-ALK [1]; 0.05 μM and 0.1 μM): no effect
- degradation of phosphorylated and total NPM-ALK (NPM-ALK [1]; 0.5 μM): partial degradation
- pIC50 (MV 4-11 cells (FLT3-ITD)): 7.46
- pIC50 [2]: 6.16
- pIC50 [3]: 6.35
- pIC50 (A375 cells (B-raf V600E)): 7.15
- pIC50 (K562 cells (Bcr-Abl)): 6.91
- pIC50 [4]: 6.30
- association of Flt3 with Hsp90 (Flt3 with Hsp90): disrupt the association of Flt3 with Hsp90
- growth of leukemia cells [5]: inhibited
- apoptosis (Kasumi-1 cells): induce apoptosis
- degradation of B-raf (B-raf): degraded more rapidly than in CHL cells
- cell cycle and apoptosis (NPM-ALK [6]): induce cell-cycle arrest and apoptosis
- degradation of NPM-ALK (NPM-ALK [6]): increased degradation of NPM-ALK
